SMILES strings stand for the structures.

The melting point is the temperature, or range, at which the solid turns liquid. With `O=C([C@H]1CC[C@H](Nc2nccc(-n3ccc4c(C5(O)CCS(=O)(=O)CC5)cccc43)n2)CC1)N1CCC(O)CC1` [Compound 231, (4-{4-[4-(4-hydroxy-1,1-dioxo-hexahydro-thiopyran-4-yl)-indol-1-yl]-pyrimidin-2-yl-amino}-cyclohexyl)-(4-hydroxy-piperidin-1-yl)-methanone], the melting point fell in the range of 271 to 272 °C. The same measure for `O=C([C@H]1CC[C@H](Nc2nccc(-n3ccc4c(C5(O)CCOCC5)cccc43)n2)CC1)N1CCC(O)CC1` [Compound 232, (4-hydroxy-piperidin-1-yl)-(4-{4-[4-(4-hydroxy-tetrahydro-pyran-4-yl)-indol-1-yl]-pyrimidin-2-ylamino}-cyclohexyl)-methanone]: 168 to 169 °C; for `CS(=O)(=O)N[C@H]1CC[C@H](Nc2nccc(-n3ccc4c(OCCCC(F)(F)F)cccc43)n2)CC1` [Compound 235, N-(4-{4-[4-(4,4,4-tri-fluoro-butoxy)-indol-1-yl]-pyrimidin-2-yl-amino}-cyclohexyl)-methanesulfonamide]: 241 to 242 °C.

For the compound `COCCCOc1cccc2c1ccn2-c1ccnc(N[C@H]2CC[C@H](NS(C)(=O)=O)CC2)n1` [Compound 236, N-(4-{4-[4-(3-methoxy-propoxy)-indol-1-yl]-pyrimidin-2-ylamino}-cyclohexyl)-methanesulfonamide], the melting point is 207 to 208 °C. Consider `CS(=O)(=O)CCCOc1cccc2c1ccn2-c1ccnc(N[C@H]2CC[C@H](C(=O)N3CCC(F)CC3)CC2)n1` [Compound 239, (4-fluoro-piperidin-1-yl)-(4-{4-[4-(3-methane-sulfonyl-propoxy)-indol-1-yl]-pyrimidin-2ylamino}-cyclohexyl)-methanone], for which the melting point lay within 115 to 116 °C. With `CC(C)(O)c1cccc2c1ccn2-c1ccnc(N[C@H]2CC[C@H](N(CCO)S(C)(=O)=O)CC2)n1` [Compound 240, N-(2-hydroxyethyl)-N-(4-{4-[4-(2-hydroxy-prop-2-yl)-indol-1-yl]-pyrimidin-2-ylamino}-cyclohexyl)-methane-sulfonamide] the figure was 214 to 215 °C; with `Oc1cccc2c1cnn2-c1ccnc(N[C@H]2CC[C@H](O)CC2)n1` [Compound 242, 1-[2-(4-hydroxy-cyclohexylamino)-pyrimidin-4-yl]-1H-indazol-4-ol], over 300 °C; with `NS(=O)(=O)CCCOc1cccc2c1cnn2-c1ccnc(N[C@H]2CC[C@H](C(=O)N3CCC(O)CC3)CC2)n1` [Compound 243, 3-(1-{2-[4-(4-hydroxy-piperidine-1-carbonyl)-cyclohexylamino]-pyrimidin-4-yl}-1H-indazol-4yloxy)-propane-1-sulfonic acid amide], 237 to 238 °C.

The compound `CS(=O)(=O)N[C@H]1CC[C@H](Nc2nccc(-n3cc(C#N)c4ccccc43)n2)CC1` [Compound 247, N-{4-[4-(3-cyano-indol-1-yl)-pyrimidin-2-ylamino]-cyclohexyl}-methanesulfonamide] registered a melting point of over 300 °C.

The compound `CN([C@H]1CC[C@H](Nc2nccc(-n3cc(C#N)c4ccccc43)n2)CC1)S(C)(=O)=O` [Compound 248, N-{4-[4-(3-cyano-indol-1-yl)-pyrimidin-2-ylamino]-cyclohexyl}-N-methyl-methane-sulfonamide] gave a melting point of 289 to 290 °C. With `N#Cc1cn(-c2ccnc(N[C@H]3CC[C@H](C(=O)N4CCC(O)CC4)CC3)n2)c2ccccc12` [Compound 249, 1-{2-[4-(4-hydroxy-piperidine-1-carbonyl)-cyclohexylamino]-pyrimidin-4-yl}-1H-indol-3-carbonitrile], the melting point lay in the range of 259 to 260 °C. `CS(=O)(=O)CCCOc1cccc2c1ccn2-c1ccnc(N[C@H]2CC[C@H](C(N)=O)CC2)n1` [Compound 250, 4-{4-[4-(3-methane-sulfonyl-propoxy)-indol-1-yl]-pyrimidin-2-ylamino}-cyclohexane-carboxylic acid amide] returned a melting point of 249 to 250 °C. With `CN(C)C(=O)[C@H]1CC[C@H](Nc2nccc(-n3ccc4c(OCCCS(C)(=O)=O)cccc43)n2)CC1` [Compound 251, 4-{4-[4-(3-methane-sulfonyl-propoxy)-indol-1-yl]-pyrimidin-2-ylamino}-cyclohexane-carboxylic acid dimethylamide] the figure was 169 to 170 °C. The same measure for `CS(=O)(=O)CCCOc1cccc2c1cnn2-c1ccnc(N[C@H]2CC[C@H](C(=O)c3ccccc3)CC2)n1` [Compound 255, (4-{4-[4-(3-methane-sulfonyl-propoxy)-indazol-1-yl]-pyrimidin-2-ylamino}-cyclohexyl)-phenyl-methanone]: 174.5 to 175.5 °C; for `CS(=O)(=O)CCCOc1cccc2c1cnn2-c1ccnc(N[C@H]2CC[C@H](C(=O)c3ccccn3)CC2)n1` [Compound 256, (4-{4-[4-(3-methane-sulfonyl-propoxy)-indazol-1-yl]-pyrimidin-2-ylamino}-cyclohexyl)-pyrid-2-yl-methanone]: 200 to 201 °C. `COC(=O)c1cccc2c1ccn2-c1ccnc(N[C@H]2CC[C@H](NS(=O)(=O)C3CC3)CC2)n1` [Compound 257, 1-[2-(4-cyclopropane-sulfonylamino-cyclo-hexylamino)-pyrimidin-4-yl]-1H-indole-4-carboxylic acid methyl ester] registered a melting point of 250 to 251 °C.

Consider `CC(C)(O)c1cccc2c1ccn2-c1ccnc(N[C@H]2CC[C@H](NS(=O)(=O)N3CCCC3)CC2)n1` [Compound 258, Pyrrolidine-1-sulfonic acid (4-{4-[4-(2-hydroxyprop-2-yl)-indol-1-yl]-pyrimidin-2-ylamino}-cyclohexyl)-amide], for which the melting point fell in the range of 178 to 179 °C. With `CC(C)(O)c1cccc2c1ccn2-c1ccnc(N[C@H]2CC[C@H](NS(=O)(=O)N3CCOCC3)CC2)n1` [Compound 259, Morpholine-4-sulfonic acid (4-{4-[4-(2-hydroxyprop-2-yl)-indol-1-yl]-pyrimidin-2-ylamino}-cyclohexyl)-amide] the figure was over 300 °C.

`CCOC(=O)[C@H]1CC[C@H](Nc2nccc(-n3ncc4c(OCCCS(N)(=O)=O)cccc43)n2)CC1` [Compound 260, 4-{4-[4-(3-sulfamoyl-propoxy)-indazol-1-yl]-pyrimidin-2-ylamino}-cyclohexanecarboxylic acid ethyl ester] came in with a melting point of 166 to 167 °C. With `COC1CCCN(C(=O)[C@H]2CC[C@H](Nc3nccc(-n4ccc5c(OCCCS(C)(=O)=O)cccc54)n3)CC2)C1` (stereo partly drawn) [Compound 263, (4-{4-[4-(3-methane-sulfonyl-propoxy)-indol-1-yl]-pyrimidin-2-ylamino}-cyclohexyl)-(3-methoxy-piperidin-1-yl)-methanone] the figure was 121 to 122 °C. With `CS(=O)(=O)CCCOc1cccc2c1ccn2-c1ccnc(N[C@H]2CC[C@H](C(=O)N3CCCC(C#N)C3)CC2)n1` (stereo partly drawn) [Compound 264, 1-(4-{4-[4-(3-methane-sulfonyl-propoxy)-indol-1-yl]-pyrimidin-2-ylamino}-cyclohexane-carbonyl)-piperidine-3-carbonitrile] the figure was 132 to 133 °C.
